The text below walks through data of patent publication US9212178B2, “Substituted pyrimidine compounds and their use as SYK inhibitors” (Genosco, priority 2013, dated 2015).

One assay concerns the target full-length human SYK (Homo sapiens (Human), UniProt P43405). Nature of the assay: Inhibition of enzymatic SYK kinase activity (LANCE Ulight TK peptide). The note with it: ATP at Km (15 uM), 30 min pre-incubation. The assay is classed as biochemical. Here is the method:
Compounds of the present invention were assayed to measure their capacity to inhibit a spleen tyrosine kinase (SYK).
Compounds of the invention were initially diluted to 10 mM in 100% DMSO (CALBIOCHEM™) for storage and made into kinase buffer solution to create a compound concentration ranging from 1 uM and 10 uM. Serial dilutions of compounds of the invention were dispensed into a 96-well plate (GREINER BIOSCIENCES™) at 6 μL each. Purified full-length human SYK (CARNA BIOSCIENCES™) were diluted in kinase buffer and added to the compound solutions and pre-incubated for 30 minutes at room temperature. […] The reaction mixture was incubated for 1 hour. Following the incubation, the stop solution made with EDTA, water, and Lance detection buffer ([…]™) was added (12 μL each) to stop phosphorylation.
For orientation: TR-FRET usually uses a lanthanide donor and a delayed reading to cut background.

The subject of a further assay is THP-1 cells. Nature of the assay: SYK-dependent TNF-α release assay (IgG stimulation), ELISA. The conditions noted are these: THP-1 cells on human IgG-coated plate, 18 hours; read-out: TNF-α release inhibition, IgG stimulation IC50. The assay is classed as cell-based. The method, then:
In order to address cellular potency of Compounds of Formula (I), TNF-a production was measured on treatment of a series of concentration of SYK inhibitor in THP-1 cells.
For SYK-dependent TNF-α release assay (i.e., via IgG stimulation), THP-1 cells derived from human monocytic cells were obtained from the American Type Culture Collection (ATCC, Manassas, Va.). This cell line was maintained with a Roswell Park Memorial Institute (RPMI) medium (GIBCO) containing 10% fetal bovine serum (FBS; GIBCO) and 0.05 mM solution of 2-mercaptoethanol. The THP-1 cells were seeded at 1×10^5 cells/100 μL/well into human IgG (10 ng/well, INVITROGEN)-coated 96 well culture plate, and serially diluted compound was then added. After an 18 hours of incubation period at 37° C., supernatants were collected for the determination of the TNF-α level by enzyme-linked immunosorbent assay (ELISA), and the remaining cells were subjected to an MTT (yellow tetrazolium salt) assay to determine the cytotoxic effects of the compound. The IC50 value of the test compound was calculated at Gradpad Prism 5 unless otherwise specified.
(In general: ELISA stands for enzyme-linked immunosorbent assay.)

In the case of `Cc1nn(-c2ccnc(Nc3ccc4c(c3)c(C(=O)C(C)C)cn4C)n2)cc1CN1C[C@H](O)CO1` [Compound 2, (S)-1-(5-(4-(4-((4-hydroxyisoxazolidin-2-yl)methyl)-3-methyl-1H-pyrazol-1-yl)pyrimidin-2-ylamino)-1-methyl-1H-indol-3-yl)-2-methylpropan-1-one], the figures for the IC50 against full-length human SYK and with THP-1 cells were 8.63 nM and 67 nM, respectively.

Take `Cc1nn(-c2ccnc(Nc3ccc4c(c3)c(C(=O)C(F)(F)F)cn4C)n2)cc1CN1C[C@H](O)CO1` [Compound 3, (S)-2,2,2-trifluoro-1-(5-(4-(4-((4-hydroxyisoxazolidin-2-yl)methyl)-3-methyl-1H-pyrazol-1-yl)pyrimidin-2-ylamino)-1-methyl-1H-indol-3-yl)ethanone]: the half-inhibitory concentration (IC50) at full-length human SYK was determined as 2.82 nM; with THP-1 cells, 48 nM.

For the compound `Cc1nn(-c2ccnc(Nc3ccc4c(c3)c(C(=O)C(F)F)cn4C)n2)cc1CN1C[C@H](O)CO1` [Compound 4, (S)-2,2-difluoro-1-(5-(4-(4-((4-hydroxyisoxazolidin-2-yl)methyl)-3-methyl-1H-pyrazol-1-yl)pyrimidin-2-ylamino)-1-methyl-1H-indol-3-yl)ethanone], the IC50 against full-length human SYK stood at 9.42 nM; with THP-1 cells it was 45 nM.

Regarding `CCOC(=O)n1cc(C(C)=O)c2cc(Nc3nccc(-n4cc(CN5C[C@H](O)CO5)c(C)n4)n3)ccc21` [Compound 5, (S)-ethyl 3-acetyl-5-(4-(4-((4-hydroxyisoxazolidin-2-yl)methyl)-3-methyl-1H-pyrazol-1-yl)pyrimidin-2-ylamino)-1H-indole-1-carboxylate], in the assay with THP-1 cells, the half-maximal inhibitory concentration (IC50) turned out to be 293 nM.

On to `Cc1nn(-c2ccnc(Nc3ccc4[nH]cc(C(=O)C(F)(F)F)c4c3)n2)cc1CN1C[C@H](O)CO1` [Compound 7, (S)-2,2,2-trifluoro-1-(5-(4-(4-((4-hydroxyisoxazolidin-2-yl)methyl)-3-methyl-1H-pyrazol-1-yl)pyrimidin-2-ylamino)-1H-indol-3-yl)ethanone], for which the 50% inhibitory concentration (IC50) on full-length human SYK amounted to 8.28 nM; in the assay on THP-1 cells, 60 nM.

For the compound `Cc1nn(-c2ccnc(Nc3ccc4c(c3)c(C(=O)C3CC3)cn4C(C)C)n2)cc1CN1C[C@H](O)CO1` [Compound 8, (S)-cyclopropyl(5-(4-(4-((4-hydroxyisoxazolidin-2-yl)methyl)-3-methyl-1H-pyrazol-1-yl)pyrimidin-2-ylamino)-1-isopropyl-1H-indol-3-yl)methanone], the half-maximal inhibitory concentration (IC50) against full-length human SYK amounted to 7.37 nM; with THP-1 cells it was 97 nM.

`CC(=O)c1cn(C)c2ccc(Nc3nccc(-n4cc(CN5C[C@H](O)CO5)c(C)n4)n3)cc12` [Compound 9, (S)-1-(5-(4-(4-((4-hydroxyisoxazolidin-2-yl)methyl)-3-methyl-1H-pyrazol-1-yl)pyrimidin-2-ylamino)-1-methyl-1H-indol-3-yl)ethanone]: the IC50 on full-length human SYK turned out to be 13.3 nM; in the assay with THP-1 cells, 229 nM.

The compound `Cc1nn(-c2ccnc(Nc3ccc4c(c3)c(C(=O)C(F)F)cn4C)n2)cc1CN1C[C@@H](O)CO1` [Compound 10, (R)-2,2-difluoro-1-(5-(4-(4-((4-hydroxyisoxazolidin-2-yl)methyl)-3-methyl-1H-pyrazol-1-yl)pyrimidin-2-ylamino)-1-methyl-1H-indol-3-yl)ethanone] yielded an IC50 on full-length human SYK of 24.4 nM.

Consider `CCn1cc(C(=O)C2CC2)c2cc(Nc3nccc(-n4cc(CN5C[C@@H](O)CO5)c(C)n4)n3)ccc21` [Compound 11, (R)-cyclopropyl(1-ethyl-5-(4-(4-((4-hydroxyisoxazolidin-2-yl)methyl)-3-methyl-1H-pyrazol-1-yl)pyrimidin-2-ylamino)-1H-indol-3-yl)methanone], for which the IC50 against full-length human SYK worked out at 6.28 nM; in the assay with THP-1 cells, 89 nM.

On to `Cc1nn(-c2ccnc(Nc3ccc4[nH]cc(C(=O)C5CC5)c4c3)n2)cc1CN1C[C@H](O)CO1` [Compound 12, (S)-cyclopropyl(5-(4-(4-((4-hydroxyisoxazolidin-2-yl)methyl)-3-methyl-1H-pyrazol-1-yl)pyrimidin-2-ylamino)-1H-indol-3-yl)methanone], for which the IC50 came to 13.5 nM against full-length human SYK and 120 nM in the assay on THP-1 cells.

`CCn1cc(C(=O)C2CC2)c2cc(Nc3nccc(-n4cc(CN5CC(C)(O)CO5)c(C)n4)n3)ccc21` (centres unmarked) [Compound 13, cyclopropyl(1-ethyl-5-(4-(4-((4-hydroxy-4-methylisoxazolidin-2-yl)methyl)-3-methyl-1H-pyrazol-1-yl)pyrimidin-2-ylamino)-1H-indol-3-yl)methanone]: the IC50 was found to be 17.3 nM on full-length human SYK and 273 nM with THP-1 cells.

For `Cc1nn(-c2ccnc(Nc3ccc4c(c3)c(C(=O)C3CC3)cn4C)n2)cc1CN1CC(C)(O)CO1` (centres unmarked) [Compound 14, cyclopropyl(5-(4-(4-((4-hydroxy-4-methylisoxazolidin-2-yl)methyl)-3-methyl-1H-pyrazol-1-yl)pyrimidin-2-ylamino)-1-methyl-1H-indol-3-yl)methanone], the results for the IC50 on full-length human SYK and in the assay on THP-1 cells were 41.7 nM and 789 nM, respectively.

Regarding `Cc1nn(-c2ccnc(Nc3ccc4c(c3)c(C(=O)C3CC3)cn4CC(F)(F)F)n2)cc1CN1C[C@H](O)CO1` [Compound 15, (S)-cyclopropyl(5-(4-(4-((4-hydroxyisoxazolidin-2-yl)methyl)-3-methyl-1H-pyrazol-1-yl)pyrimidin-2-ylamino)-1-(2,2,2-trifluoroethyl)-1H-indol-3-yl)methanone], the IC50 against full-length human SYK came out at 2.98 nM; with THP-1 cells, 66 nM.

With `Cc1nn(-c2ccnc(Nc3ccc4c(c3)c(C(=O)C3CC3)cn4CC(F)(F)F)n2)cc1CN1CC(C)(O)CO1` (centres unmarked) [Compound 16, cyclopropyl(5-(4-(4-((4-hydroxy-4-methylisoxazolidin-2-yl)methyl)-3-methyl-1H-pyrazol-1-yl)pyrimidin-2-ylamino)-1-(2,2,2-trifluoroethyl)-1H-indol-3-yl)methanone], the 50% inhibitory concentration (IC50) is 14.2 nM against full-length human SYK and 226 nM with THP-1 cells.

Turning to `Cc1nn(-c2nc(Nc3ccc4c(c3)c(C(=O)C(F)(F)F)cn4C)ncc2Cl)cc1CN1C[C@H](O)CO1` [Compound 17, (S)-1-(5-(5-chloro-4-(4-((4-hydroxyisoxazolidin-2-yl)methyl)-3-methyl-1H-pyrazol-1-yl)pyrimidin-2-ylamino)-1-methyl-1H-indol-3-yl)-2,2,2-trifluoroethanone], the half-maximal inhibitory concentration (IC50) on full-length human SYK was found to be 132 nM.

As to `Cc1cnc(Nc2ccc3c(c2)c(C(=O)C(F)(F)F)cn3C)nc1-n1cc(CN2C[C@H](O)CO2)c(C)n1` [Compound 18, (S)-2,2,2-trifluoro-1-(5-(4-(4-((4-hydroxyisoxazolidin-2-yl)methyl)-3-methyl-1H-pyrazol-1-yl)-5-methylpyrimidin-2-ylamino)-1-methyl-1H-indol-3-yl)ethanone], the concentration for half-maximal inhibition (IC50) at full-length human SYK was 159 nM.

Take `Cc1cnc(Nc2ccc3c(c2)c(C(=O)C2CC2)cn3C)nc1-n1cc(CN2C[C@H](O)CO2)c(C)n1` [Compound 19, (S)-cyclopropyl(5-(4-(4-((4-hydroxyisoxazolidin-2-yl)methyl)-3-methyl-1H-pyrazol-1-yl)-5-methylpyrimidin-2-ylamino)-1-methyl-1H-indol-3-yl)methanone]: the IC50 amounted to 271 nM at full-length human SYK and 821 nM in the assay on THP-1 cells.

`CCn1cc(C(=O)C2CC2)c2cc(Nc3ncc(F)c(-n4cc(CN5C[C@H](O)CO5)c(C)n4)n3)ccc21` [Compound 20, (S)-cyclopropyl(1-ethyl-5-(5-fluoro-4-(4-((4-hydroxyisoxazolidin-2-yl)methyl)-3-methyl-1H-pyrazol-1-yl)pyrimidin-2-ylamino)-1H-indol-3-yl)methanone] came in with an IC50 at full-length human SYK of 66.2 nM.

In turn, `CCn1cc(C(=O)C2CC2)c2cc(Nc3ncc(C)c(-n4cc(CN5C[C@H](O)CO5)c(C)n4)n3)ccc21` [Compound 22, (S)-cyclopropyl(1-ethyl-5-(4-(4-((4-hydroxyisoxazolidin-2-yl)methyl)-3-methyl-1H-pyrazol-1-yl)-5-methylpyrimidin-2-ylamino)-1H-indol-3-yl)methanone] returned an IC50 against full-length human SYK of 79.3 nM.

At full-length human SYK, `Cc1nn(-c2ccnc(Nc3ccc4c(c3)c(C(=O)C3CC3)cn4C)n2)cc1CN1CC(C)(O)CCO1` (centres unmarked) [Compound 28] gave an IC50 of 106 nM.

Turning to `Cc1nn(-c2ccnc(Nc3ccc4c(c3)c(Cl)c(C)n4C)n2)cc1CN1C[C@H](O)CO1` [Compound 31, (S)-2-((1-(2-(3-chloro-1,2-dimethyl-1H-indol-5-ylamino)pyrimidin-4-yl)-3-methyl-1H-pyrazol-4-yl)methyl)isoxazolidin-4-ol], in the assay on THP-1 cells, the half-inhibitory concentration (IC50) turned out to be 197 nM.

As to “(S)-cyclopropyl(1-ethyl-5-(5-fluoro-4-(3-((4-hydroxyisoxazolidin-2-yl)methyl)-4-methyl-1H-pyrrol-1-yl)pyrimidin-2-ylamino)-1H-indol-3-yl)methanone [Compound 21]”, the IC50 against full-length human SYK was 230 nM.

Broadly, the IC50 is the midpoint of a concentration-inhibition curve.
